Biological target: T1, Human M4 (Homo sapiens, UniProt P08173)
T1 construct: expressed in transfected cells; host or cells: CHO-K1 (ATCC), co-transfected with chimeric G protein Gqi5
T1 sequence (P08173 1-479): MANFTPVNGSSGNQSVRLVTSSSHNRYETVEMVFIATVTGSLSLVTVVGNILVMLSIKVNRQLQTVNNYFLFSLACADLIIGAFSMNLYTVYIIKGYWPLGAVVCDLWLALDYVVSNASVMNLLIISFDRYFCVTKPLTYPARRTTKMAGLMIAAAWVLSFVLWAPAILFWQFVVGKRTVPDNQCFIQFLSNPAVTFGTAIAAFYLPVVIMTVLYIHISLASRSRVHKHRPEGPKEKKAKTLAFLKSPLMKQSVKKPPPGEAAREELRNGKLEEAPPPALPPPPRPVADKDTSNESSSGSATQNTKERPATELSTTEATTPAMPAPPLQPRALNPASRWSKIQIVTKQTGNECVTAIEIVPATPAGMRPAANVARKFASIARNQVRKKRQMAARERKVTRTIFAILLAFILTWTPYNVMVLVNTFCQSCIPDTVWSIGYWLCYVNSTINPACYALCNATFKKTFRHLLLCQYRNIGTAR
Experiment: mAChR M4 cell-based functional assay (calcium flux, antagonism of EC80 acetylcholine response)
Settings: M4/Gqi5/CHO-K1 cells; for remaining activity at 30 µM: CHO-K1, % ACh maximum at 30 μM, read-out: Human M4 Emin; for IC50: decrease of response elicited by EC80 acetylcholine; for Human M4 Emin: % ACh maximum at 30 μM
Procedure: Human or rat M4 cDNA, along with the chimeric G protein Gqi5, were transfected into Chinese hamster ovary (CHO-K1) cells purchased from the American Type Culture Collection using Lipofectamine2000. M4/Gqi5/CHO cells were grown in Ham's F-12 medium containing 10% heat-inactivated fetal bovine serum (FBS), 20 mM HEPES, 500 μg/mL G418 sulfate, and 200 μg/mL Hygromycin B.
For high throughput measurement of agonist-evoked increases in intracellular calcium, CHO-K1 cells stably expressing muscarinic receptors were plated in growth medium lacking G418 and hygromycin at 15,000 cells/20 μL/well in Greiner 384-well black-walled, tissue culture (TC)-treated, clear-bottom plates (VWR). Cells were incubated overnight at 37° C. and 5% CO2. The next day, cells were washed using an ELX 405 (BioTek) with assay buffer; the final volume was then aspirated to 20 μL. Next, 20 μL of a 2.3 μM stock of Fluo-4/acetoxymethyl ester (Invitrogen, Carlsbad, Calif.), prepared as a 2.3 mM stock in DMSO and mixed in a 1:1 ratio with 10% (w/v) Pluronic F-127 and diluted in assay buffer, was added to the wells and the cell plates were incubated for 50 min at 37° C. and 5% CO2. Dye was removed by washing with the ELX 405 and the final volume was aspirated to 20 μL. Compound master plates were formatted in a 10 point concentration-response curve (CRC) format (1:3 dilutions) in 100% DMSO with a starting concentration of 10 or 1 mM using a BRAVO liquid handler (Agilent). Test compound CRCs were then transferred to daughter plates (240 nL) using the Echo acoustic plate reformatter (Labcyte, Sunnyvale, Calif.) and then diluted into assay buffer (40 μL) to a 2× stock using a Thermo Fisher Combi (Thermo Fisher Scientific, Waltham, Mass.).
Calcium flux was measured using the Functional Drug Screening System (FDSS) 6000 or 7000 (Hamamatsu Corporation, Tokyo, Japan) as an increase in the fluorescent static ratio. Compounds were applied to cells (20 μL, 2×) using the automated system of the FDSS at 2 seconds into the protocol and the data were collected at 1 Hz. At 143 s, 10 μL of an EC20 concentration of the muscarinic receptor agonist acetylcholine was added (5×), followed by the addition of 12 μL of an EC80 concentration of acetylcholine at the 268 s time point (5×). Agonist activity was analyzed as a concentration-dependent increase in calcium mobilization upon compound addition. Positive allosteric modulator activity was analyzed as a concentration-dependent increase in the EC20 acetylcholine response. Antagonist activity was analyzed as a concentration-dependent decrease in the EC80 acetylcholine response; for the purposes of the tables herein, an IC50 (inhibitory concentration 50) was calculated as a concentration-dependent decrease of the response elicited by an EC80 concentration of acetylcholine. Concentration-response curves were generated using a four-parameter logistical equation in XLFit curve fitting software (IDBS, Bridgewater, N.J.) for Excel (Microsoft, Redmond, Wash.) or Prism (GraphPad Software, Inc., San Diego, Calif.) or the Dotmatics software platform (Dotmatics, Bishop's Stortford, UK).
Compounds were synthesized as described above. Activity (IC50 and Emin) was determined in the mAChR M4 cell-based functional assay as described above and the data are shown in Table 2.

Structure (SMILES)	remaining activity at 30 µM [%]	IC50 [nM]	Human M4 Emin [%]
Fc1cc(F)c(F)c(-c2nnc(N[C@H]3C[C@@H]4CN(CC5CCCCO5)C[C@@H]4C3)cc2C(F)F)c1 (single isomer, unassigned) [compound 46]	3	1.98	–
Fc1cc(F)c(F)c(-c2nnc(N[C@H]3C[C@@H]4CN(CC5CCCCO5)C[C@@H]4C3)cc2C(F)F)c1 (single isomer, unassigned) [compound 47]	–	2.02	2
COc1cc(-c2ccc(F)cc2)nnc1N[C@H]1C[C@@H]2CN(CC3CCOCC3)C[C@@H]2C1 [compound 3, (3aR,5s,6aS)-N-(6-(4-fluorophenyl)-4-methoxypyridazin-3-yl)-2-((tetrahydro-2H-pyran-4-yl)methyl)octahydrocyclopenta[c]pyrrol-5-amine]	5	48.4	–
COc1cc(-c2ccc3nn(C)cc3c2)nnc1N[C@H]1C[C@@H]2CN(CC3CCOCC3)C[C@@H]2C1 [compound 5, (3aR,5s,6aS)-N-(4-methoxy-6-(2-methyl-2H-indazol-5-yl)pyridazin-3-yl)-2-((tetrahydro-2H-pyran-4-yl)methyl)octahydrocyclopenta[c]pyrrol-5-amine]	3	3.89	–
COc1cc(-c2cc3cn(C)nc3cc2F)nnc1N[C@H]1C[C@@H]2CN(CC3CCOCC3)C[C@@H]2C1 [compound 6, (3aR,5s,6aS)-N-(6-(6-fluoro-2-methyl-2H-indazol-5-yl)-4-methoxypyridazin-3-yl)-2-((tetrahydro-2H-pyran-4-yl)methyl)octahydrocyclopenta[c]pyrrol-5-amine]	4	44	–

Continued by falling IC50, values first:

remaining activity at 30 µM [%]	IC50 [nM]	Human M4 Emin [%]	Structure (SMILES)
3	12	–	COc1cc(-c2cc(F)ccc2F)nnc1N[C@H]1C[C@@H]2CN(CC3CCOCC3)C[C@@H]2C1 [compound 4, (3aR,5s,6aS)-N-(6-(2,5-difluorophenyl)-4-methoxypyridazin-3-yl)-2-((tetrahydro-2H-pyran-4-yl)methyl)octahydrocyclopenta[c]pyrrol-5-amine]
5	10.8	–	COc1cc(-c2cccc(F)c2)nnc1N[C@H]1C[C@@H]2CN(CC3CCOCC3)C[C@@H]2C1 [compound 1, (3aR,5s,6aS)-N-(6-(3-fluorophenyl)-4-methoxypyridazin-3-yl)-2-((tetrahydro-2H-pyran-4-yl)methyl)octahydrocyclopenta[c]pyrrol-5-amine]
3	10.5	–	COc1cc(-c2ccccc2F)nnc1N[C@H]1C[C@@H]2CN(CC3CCOCC3)C[C@@H]2C1 [compound 2, (3aR,5s,6aS)-N-(6-(2-fluorophenyl)-4-methoxypyridazin-3-yl)-2-((tetrahydro-2H-pyran-4-yl)methyl)octahydrocyclopenta[c]pyrrol-5-amine]
9	6.84	–	COc1cc(-c2cc(F)ccc2C)nnc1N[C@H]1C[C@@H]2CN(CC3CCOCC3)C[C@@H]2C1 [compound 7, (3aR,5s,6aS)-N-(6-(5-fluoro-2-methylphenyl)-4-methoxypyridazin-3-yl)-2-((tetrahydro-2H-pyran-4-yl)methyl)octahydrocyclopenta[c]pyrrol-5-amine]
–	1.64	2	Fc1cc(F)c(F)c(-c2nnc(N[C@H]3C[C@@H]4CN(CC5CCCOC5)C[C@@H]4C3)cc2C(F)F)c1 (single isomer, unassigned) [compound 49]
2	1.3	–	Fc1cc(F)c(F)c(-c2nnc(N[C@H]3C[C@@H]4CN(CC5CCCOC5)C[C@@H]4C3)cc2C(F)F)c1 (single isomer, unassigned) [compound 48]

Source: US20230122344A1, “ANTAGONISTS OF THE MUSCARINIC ACETYLCHOLINE RECEPTOR M4” (Vanderbilt University, priority 2019, published 2023)
